According to patent publication US12036243B2, “BCMA CAR-T cells with enhanced activities” (Allogene Therapeutics, Inc., priority 2020, dated 2024):

Legend:
[1] = test system: BCMA CAR T cells with or without the CACCR
Procedure: We tested in an in vitro cell killing assay the effect of 150 nM dasatinib on the activities of the BCMA CAR T cells with or without the CACCR.

[2] = test system: BCMA CAR T cells with or without the CACCR; experiment: Rituximab complement-dependent cytotoxicity assay; type: cell-based; conditions: both types of BCMA CAR T cells
From the text: (§1) To minimize any potential safety concerns in clinical development, the BCMA CAR construct was designed to incorporate two rituximab mimotopes, which would sensitize the BCMA CAR T cells to rituximab-mediated depletion. We next tested the effects of rituximab on the BCMA CAR T cells with or without the CACCR.

[3] = test system: BCMA CAR T cells with or without the CACCR; experiment: Rituximab NK cell-mediated antibody-dependent cellular cytotoxicity assay; type: cell-based; conditions: both types of BCMA CAR T cells
From the text: as §1

[4] = test system: BCMA CAR T cells, with or without the CACCR; experiment: Rituximab-mediated CAR T cell depletion in vivo (MM.1S-Luc-GFP-bearing mice); parameters: species or system NSG mice
Procedure: Next, we tested the effect of rituximab on decreasing BCMA CAR T cells, with or without the CACCR, in vivo. […] Rituximab (10 mg/kg) or PBS vehicle control was dosed intraperitoneally starting on the day of CAR T cell dosing and then daily for 4 additional days (n=9 or 10 per group).

Compound	cytotoxicity of BCMA CAR T cells [1]	viable CAR T cells [2]	viable CAR T cells [3]	tumor burden following rituximab-mediated CAR T cell depletion ([4]; rituximab 10 mg/kg i.p.)	CAR T cell counts in peripheral blood ([4]; rituximab 10 mg/kg i.p. daily for 5 days, 7 days post-CAR T cell dosing)
Cc1nc(Nc2ncc(C(=O)Nc3c(C)cccc3Cl)s2)cc(N2CCN(CCO)CC2)n1 [dasatinib]	abolished the cytotoxicity	–	–	–	–
rituximab	–	significantly decreased viable CAR T cells in a dose-responsive manner	significantly decreased viable CAR T cells in a dose-responsive manner	compromised anti-tumor efficacy	efficient and complete elimination of both CAR T cells
